We go through 74 molecules from patent publication US20070167488A1, “Novel therapeutic use” (Leo Pharma A/S, priority 2003, published 2007).

The first assay concerns IL-2. Kind of assay: Inhibition of IL-2 production in phytohemagglutinin-activated human PBMCs (sandwich ELISA). Format: cell-based. The note with it: Homo sapiens, PBMC, 46 h, approximately 46 hours, read-out: IL-2 pIC50 (converted). The protocol:
Peripheral blood mononuclear cells (PBMCs) were isolated from human blood. The lymphocytes, a fraction of the PBMCs, were activated to secrete IL-2 using the polyclonal mitogen phytohemagglutinin. The test compounds were added in concentrations from 10^−5 to 10^−10, and the cells (10^6/ml) were incubated in microtiter wells at 37° C. for approximately 46 hours.
After 46 hours the cells were centrifuged down for 25 minutes at 1000×g and the supernatants were transferred to transferred to microtiter wells precoated with a monoclonal antibody against human IL-2. The IL-2 concentration in the supernatants was determined by a sandwich ELISA. Microtiter plates were coated (1 μg/ml) with a monoclonal antibody (R&D, UK) against human IL-2, washed 4 times, blocked with 1% casein buffer for 2 hours and washed 2 times. 100 μl sample was added to each well and incubated overnight. All samples were tested in triplicate. 100 μl IL-2 standards (R&D, UK) at a concentration range of 10000-0 pg/ml were tested in triplicate. After incubation the plates were washed and incubated with biotinylated polyclonal secondary antibody against human IL-2 (R&D, UK) for 45 minutes and thereafter washed 4 times. 100 μl enzyme conjugate, horseradish peroxidase conjugated streptavidin diluted 1:4000 (Zymed, USA), was added to all wells and incubated for 30 minutes. 100 μl OPD substrate (KEM EN TEC-DK) was added and the enzyme/substrate reaction stopped after 10 minutes at room temperature with 50 μl 1 M H2SO4. The colour development (optical density—OD) was determined at 492 nm on an ELISA reader and the background OD at 620 nm subtracted).
(An ELISA detects its analyte on a solid surface through an enzyme-linked reagent.)
For `Cc1cc(C)c(/C=C2\C(=O)Nc3cccc(C(=O)O)c32)[nH]1`, the IC50 is 100 nM.

Consider `COc1ccc(F)c(/C=C2/C(=O)Nc3ccccc32)c1`, for which the IC50 is 63.1 nM.

Take `COc1ccc(OC)c(/C=C2/C(=O)Nc3c(F)cc(F)cc32)c1`: the IC50 is 10 nM.

With `COc1cc(/C=C2/C(=O)Nc3ccccc32)c(OCc2ccccc2)cc1OC`, the IC50 is 794 nM.

Turning to `N#Cc1ccc2c(c1)/C(=C/c1c[nH]c3ccccc13)C(=O)N2`, the IC50 was 1 nM.

For the molecule `O=C1Nc2ccccc2/C1=C\c1ccc(O)cc1O`, the IC50 is 316 nM.

Turning to `Cc1cc(C[n+]2ccccc2)[nH]c1/C=C1\C(=O)Nc2ccccc21`, the IC50 is 6.31 nM.

As for `O=C1Nc2ccccc2/C1=C\c1cccc(Br)c1`, the IC50 is 10 nM.

As for `O=C1Nc2ccccc2/C1=C\c1cn(Cc2cnc(Cl)s2)c2ccccc12`, the IC50 was 10 nM.

For the molecule `COc1ccc(OC)c(/C=C2/C(=O)Nc3cc(F)ccc32)c1`, the IC50 is 10 nM.

For `O=C1Nc2ccccc2/C1=C\c1c[nH]c2c(F)c(F)c(F)c(F)c12`, the IC50 is 2 nM.

For the molecule `O=C1Nc2cc(C(F)(F)F)ccc2/C1=C/c1c[nH]c2ccccc12`, the IC50 was 20 nM.

Regarding `COc1ccc(OC)c(/C=C2/C(=O)Nc3ccc(F)c(F)c32)c1`, the IC50 was 20 nM.

On to `O=C1Nc2ccccc2/C1=C\c1cc(Br)co1`, for which the IC50 is 31.6 nM.

As for `Cc1cc(C)cc(-c2ccc(N(C)CCN(C)C)c(/C=C3\C(=O)Nc4ccccc43)c2)c1`, the IC50 is 63.1 nM.

Turning to `Cc1ccc2c(/C=C3/C(=O)Nc4ccccc43)c[nH]c2c1`, the IC50 was 0.1 nM.

Consider `Cc1cccc(COc2ccc(/C=C3/C(=O)Nc4ccccc43)cc2)n1`, for which the IC50 was 398 nM.

As to `O=C1Nc2cc(Br)ccc2/C1=C/c1c[nH]c2ccccc12`, the IC50 is 3.16 nM.

`O=C(O)CCn1cc(/C=C2\C(=O)Nc3ccccc32)c2ccccc21`: the IC50 is 200 nM.

Turning to `O=C1Nc2ccc(Cl)cc2/C1=C/c1ccccc1O`, the IC50 was 100 nM.

On to `Cc1cc(C(=O)NCCO)[nH]c1/C=C1\C(=O)Nc2ccccc21` [drawing 176], for which the IC50 is 31.6 nM.

On to `O=C1Nc2ccccc2/C1=C\c1ccc(-c2ccccc2)o1`, for which the IC50 is 3.98 nM.

Turning to `O=C1Nc2ccccc2/C1=C\c1cc(Cl)cc(Cl)c1O`, the IC50 is 398 nM.

`COc1ccc(/C=C2\C(=O)Nc3ccc(Cl)cc32)cc1`: the IC50 was 10 nM.

On to `Cc1ccc(C)c(/C=C2/C(=O)Nc3ccccc32)c1` [drawing 112], for which the IC50 is 100 nM.

On to `O=C1Nc2cc(Cl)ccc2/C1=C/c1c[nH]c2ccccc12`, for which the IC50 was 63.1 nM.

On to `COc1cc[nH]c1/C=C1\C(=O)Nc2ccc(Cl)cc21`, for which the IC50 is 50.1 nM.

In the case of `O=C1Nc2ccccc2/C1=C/c1ccc(Cl)cc1Cl`, the IC50 is 200 nM.

Regarding `O=C1Nc2ccccc2/C1=C/c1ccc2ccccc2c1`, the IC50 is 631 nM.

For `Cc1cc(/C=C2/C(=O)Nc3ccccc32)oc1C`, the IC50 was 3.98 nM.

As to `Cc1cc(/C=C2/C(=O)Nc3ccccc32)sc1C`, the IC50 was 100 nM.

As for `Cn1c(/C=C2/C(=O)Nc3ccccc32)cc2ccccc21`, the IC50 was 100 nM.

With `Cc1[nH]c(/C=C2\C(=O)Nc3cccc(Cl)c32)c(C)c1CCC(=O)O`, the IC50 is 50.1 nM.

In the case of `O=C1Nc2ccc(Br)cc2/C1=C/c1c[nH]c2ccccc12`, the IC50 was 2 nM.

Regarding `O=C1Nc2ccccc2/C1=C\c1cc(-c2ccccc2)cs1`, the IC50 is 31.6 nM.

Regarding `Cn1cc(/C=C2\C(=O)Nc3ccccc32)c2ccccc21`, the IC50 was 2 nM.

For the molecule `Cc1cc(C)c(/C=C2\C(=O)Nc3ccc(O)cc32)[nH]1`, the IC50 was 794 nM.

Consider `Cc1cc(C(=O)NCC2(c3ccc(Cl)cc3)CC2)[nH]c1/C=C1\C(=O)Nc2ccccc21`, for which the IC50 was 63.1 nM.

Consider `O=C1Nc2ccc(F)c(F)c2/C1=C/c1c[nH]c2ccccc12`, for which the IC50 was 3.98 nM.

Regarding `Cc1cc(C(=O)NCC2CCCCC2)[nH]c1/C=C1\C(=O)Nc2ccccc21`, the IC50 is 31.6 nM.

With `CCOC(=O)CCCNC(=O)c1cc(C)c(/C=C2\C(=O)Nc3ccccc32)[nH]1`, the IC50 is 39.8 nM.

In the case of `O=C1Nc2c(F)cccc2/C1=C/c1c[nH]c2ccccc12`, the IC50 is 0.316 nM.

Consider `O=C1Nc2ccccc2/C1=C/c1cccc([N+](=O)[O-])c1`, for which the IC50 was 20 nM.

Consider `COc1ccc(OC)c(/C=C2/C(=O)Nc3ccc(Cl)cc32)c1`, for which the IC50 was 6.31 nM.

With `Cc1cc(C)c(/C(C(=O)OCc2ccccc2)=C2\C(=O)Nc3ccccc32)[nH]1`, the IC50 was 20 nM.

As to `O=C1Nc2ccccc2/C1=C/c1ccc(Cl)cc1`, the IC50 is 79.4 nM.

`O=C1Nc2ccccc2/C1=C/c1ccccc1F`: the IC50 was 63.1 nM.

For `COc1ccc(CN2C(=O)/C(=C\c3[nH]c(C)cc3C)c3ccccc32)cc1`, the IC50 was 31.6 nM.

In the case of `COC(=O)CCCNC(=O)c1cc(C)c(/C=C2\C(=O)Nc3ccccc32)[nH]1`, the IC50 was 50.1 nM.

`COc1ccc(OC)c(/C=C2/C(=O)Nc3cc(S(C)(=O)=O)ccc32)c1`: the IC50 is 794 nM.

In the case of `Cc1cc(C(=O)NCCc2c[nH]c3ccccc23)[nH]c1/C=C1\C(=O)Nc2ccccc21`, the IC50 was 39.8 nM.

With `COc1cccc(/C=C2/C(=O)Nc3ccccc32)c1`, the IC50 was 6.31 nM.

As for `COc1ccc(OC)c(/C=C2/C(=O)Nc3ccc(C(F)(F)F)cc32)c1`, the IC50 was 631 nM.

As for `COc1ccc(OC)c(/C=C2\C(=O)N(OC)c3ccccc32)c1`, the IC50 is 20 nM.

Consider `O=C1Nc2cc(F)ccc2/C1=C/c1c[nH]c2ccccc12`, for which the IC50 is 3.16 nM.

With `COc1ccc(OC)c(/C=C2/C(=O)N(O)c3ccccc32)c1`, the IC50 was 10 nM.

Take `O=C1Nc2ccccc2/C1=C\c1cc(Br)cs1`: the IC50 is 6.31 nM.

Regarding `COc1ccc(O)c(/C=C2\C(=O)Nc3ccccc32)c1`, the IC50 was 200 nM.

Take `Cc1cccc(/C=C2\C(=O)Nc3ccccc32)c1`: the IC50 is 631 nM.

In the case of `O=CN1CCN(c2ccc(/C=C3\C(=O)Nc4ccccc43)cc2)CC1`, the IC50 was 316 nM.

With `COc1cc(/C=C2/C(=O)Nc3ccccc32)ccc1O`, the IC50 is 100 nM.

On to `COc1cc[nH]c1/C=C1\C(=O)Nc2cccc(Cl)c21`, for which the IC50 was 0.1 nM.

In the case of `O=C1Nc2c(F)cc(F)cc2/C1=C/c1c[nH]c2ccccc12`, the IC50 is 2 nM.

Consider `COc1ccc(OC)c(/C=C2\C(=O)Nc3ccc(Cl)cc32)c1`, for which the IC50 is 20 nM.

As for `O=C1Nc2ccccc2/C1=C/c1ccc(Cl)c(Cl)c1`, the IC50 is 20 nM.

For the molecule `COc1ccc(/C=C2/C(=O)Nc3ccccc32)c(OC)c1`, the IC50 is 2 nM.

Consider `O=C1Nc2ccccc2/C1=C\c1ccc([N+](=O)[O-])s1`, for which the IC50 was 31.6 nM.

Take `CCOC(=O)CCn1cc(/C=C2\C(=O)Nc3ccccc32)c2ccccc21`: the IC50 is 200 nM.

As to `O=C1Nc2ccccc2/C1=C/c1c[nH]c2cccc(OCc3ccccc3)c12`, the IC50 is 100 nM.

On to `O=C1Nc2ccccc2/C1=C\c1ccc(Cl)c(Cl)c1`, for which the IC50 is 1 nM.

Regarding `O=C1Nc2ccc(Cl)cc2/C1=C/c1c[nH]c2ccccc12`, the IC50 is 10 nM.

Turning to `CCCn1cc(/C=C2\C(=O)Nc3ccccc32)c2ccccc21` [drawing 137], the IC50 is 0.2 nM.

With `COc1ncc(/C=C2/C(=O)Nc3ccccc32)c(OC)n1`, the IC50 was 6.31 nM.

Still in this assay, the particulars now being: approximately 46 hours.
On to `COc1ccc(OC)c(/C=C2/C(=O)Nc3ccc(N)cc32)c1.CS(=O)(=O)O`, for which the “IL-2 pIC50” value turned out to be 7.2.
